Activity calls are given as the source filed them.

Data set [1] deals with Replicase polyprotein 1ab (Severe acute respiratory syndrome coronavirus 2) (UniProt P0DTD1). The data set is described as follows: Potency index, ratio of GRL0617 IC50 to test compound IC50 for inhibition of SARS-CoV2 PLpro.
The target of data set [2] is T1, Replicase polyprotein 1ab (Severe acute respiratory syndrome coronavirus 2, UniProt P0DTD1). The data set is described as follows: Binding affinity to SARS-CoV2 PLpro by biolayer interferometry analysis. For orientation: Biolayer interferometry detects binding as a change in optical thickness at a sensor tip.
A short description of data set [3]: Metabolic stability in human hepatocytes assessed as compound remaining at 1 uM measured after 30 mins. It is filed as ADME, cell-based, Hepatocyte. As to conditions: read-out: Stability.
Data set [4] is described as follows: Metabolic stability in human hepatocytes assessed as intrinsic clearance per million cells at 1 uM measured upto 30 mins. Type of data set: ADME, cell-based, Hepatocyte. As to conditions: read-out: CLH.
A short description of data set [5]: Metabolic stability in mouse hepatocytes assessed as compound remaining at 1 uM measured after 30 mins. It is filed as ADME, cell-based, Hepatocyte. As to conditions: read-out: Stability.
Data set [6] concerns the target T1, Replicase polyprotein 1ab. The data set is described as follows: Inhibition of SARS-CoV2 PLpro using Z-RLRGG-AMC as substrate preincubated for 10 mins followed by substrate addition and measured after 20 sec shaking for 30 mins by time-resolved fluorescence assay.
The nature of data set [7]: Metabolic stability in human hepatocytes assessed as half life at 1 uM measured upto 30 mins. Type of data set: ADME, cell-based, Hepatocyte.
Data set [8] can be described thus: Metabolic stability in mouse hepatocytes assessed as intrinsic clearance per million cells at 1 uM measured upto 30 mins. It is filed as ADME, cell-based, Hepatocyte. As to conditions: read-out: CLH.
The nature of data set [9]: Metabolic stability in mouse hepatocytes assessed as half life at 1 uM measured upto 30 mins. Type of data set: ADME, cell-based, Hepatocyte.
The target of data set [10] is Replicase polyprotein 1ab (Severe acute respiratory syndrome coronavirus 2) (UniProt P0DTD1). The data set is described as follows: Inhibition of SARS-CoV2 PLpro cleavage activity using 2Ub-K48 as substrate incubated overnight by SYPRO Ruby staining based SDS-PAGE analysis.
The nature of data set [11]: Metabolic stability in human liver microsomes assessed as half life at 1 uM preincubated for 5 mins followed by NADPH addition and measured after 30 mins by LC-MS/MS analysis. Type of data set: ADME, Microsome. As to conditions: time 35 min.
Data set [12] addresses Replicase polyprotein 1ab (Middle East respiratory syndrome-related coronavirus (isolate UnitedKingdom/H123990006/2012) (Betacoronavirus England 1) (Humancoronavirus EMC)) (UniProt K9N7C7). As to the kind of experiment: Inhibition of MERS-CoV PLpro using Z-RLRGG-AMC as substrate preincubated for 10 mins followed by substrate addition and measured after 20 sec shaking for 30 mins by time-resolved fluorescence assay. To be noted: time 40.3 min.

The nature of data set [13]: Metabolic stability in human liver microsomes assessed as compound remaining at 1 uM preincubated for 5 mins followed by NADPH addition and measured after 30 mins by LC-MS/MS analysis. Type of data set: ADME, Microsome. As to conditions: read-out: Stability. Background: Liver microsomes are a subcellular fraction often used to study metabolism.
The nature of data set [14]: Metabolic stability in CD-1 mouse liver microsomes assessed as half life at 1 uM preincubated for 5 mins followed by NADPH addition and measured after 30 mins by LC-MS/MS analysis. To be noted: time 35 min. It is filed as ADME, Microsome.
A short description of data set [15]: Metabolic stability in CD-1 mouse liver microsomes assessed as compound remaining at 1 uM preincubated for 5 mins followed by NADPH addition and measured after 30 mins by LC-MS/MS analysis. Type of data set: ADME, Microsome. To be noted: read-out: Stability.
Data set [16] relates to Severe acute respiratory syndrome-related coronavirus. The data set is described as follows: Inhibition of SARS-CoV PLpro using Z-RLRGG-AMC as substrate preincubated for 10 mins followed by substrate addition and measured after 20 sec shaking for 30 mins by time-resolved fluorescence assay.
Data set [17] concerns the target Replicase polyprotein 1ab (Severe acute respiratory syndrome coronavirus 2) (UniProt P0DTD1). As to the kind of experiment: Inhibition of RLRGG binding to SARS-CoV2 PLpro.
The target is the same in data set [18]. As to the kind of experiment: Binding affinity to SARS-CoV2 PLpro assessed as stabilization by measuring increase melting temperature by thermal shift assay.

As usually defined, the Kd is the constant that tells how readily two partners part at equilibrium. In general, IC50 refers to the concentration needed to halve the response being measured. Read a low IC50 as greater potency in that assay. As usually defined, the half-life is the time needed for the level to fall by half in the phase considered. For the compound `CC(c1nc(-c2cc(NCc3ccc(C(=O)O)s3)cc(C(F)(F)F)c2)no1)c1cccc2ccccc12` (centres undefined), the Ratio IC50 in data set [1] was determined as 10. In [2], this compound displayed a Kd of 13.6 µM. In addition, the remaining at 0.5 h, 1 µM amounted to 79.8% in data set [3] and 68% in data set [5]. The hepatocyte CLint at 1 µM in data set [4] is 7.5 µL/min/1e6 cells; in [8], 12.9 µL/min/1e6 cells. In data set [6], this compound displayed a half-inhibitory concentration (IC50) of 0.1 µM. Besides, the half-life at 1 µM in [7] worked out at 1.54 h; in data set [9], 0.898 h.
Regarding `Cc1ccc(-c2noc(C(C)c3cccc(Oc4ccccc4)c3)n2)cc1NCc1ccc(C(=O)O)s1` (centres undefined), the inhibition entry in [10], in [12], in [16] and in [17] was “Active” each time. In addition, the half-life at 1 µM in [11] and in data set [14] was above 1.55 h each time. The compound further displayed a concentration for half-maximal inhibition (IC50) in data set [6] of 4.4 µM. The remaining at 0.5 h, 1 µM in data set [13] amounted to 87%; in data set [15] it was 80%.
Take `CC(c1nc(-c2cc(NCc3ccc(C(=O)O)cc3)cc(C(F)(F)F)c2)no1)c1cccc2ccccc12` (centres undefined): in [2], binding was characterised by a dissociation constant (Kd) of 13.6 µM. Moreover, the remaining at 0.5 h, 1 µM amounted to 56.6% in data set [3] and 28.8% in [5]. In addition, the hepatocyte CLint at 1 µM in [4] came out at 19 µL/min/1e6 cells; in [8], 41.5 µL/min/1e6 cells. This compound also had an IC50 in data set [6] of 0.2 µM. The half-life at 1 µM was found to be 0.608 h in data set [7] and 0.278 h in [9].
Turning to `Cc1ccc(-c2noc(C(C)c3cccc4ccccc34)n2)cc1NCc1ccc(C(=O)O)s1` (centres undefined), the Ratio IC50 in [1] was 10. Moreover, in [6], the IC50 turned out to be 0.1 µM.
As to `CC(c1nc(-c2ccc(NCc3ccc(C(=O)O)s3)cc2)no1)c1cccc2ccccc12` (centres undefined), the inhibition entry in data set [10], in data set [12], in [16] and in [17] was “Active” each time. Further, the half-life at 1 µM in data set [11] and in data set [14] was above 1.55 h throughout. The dissociation constant (Kd) in [2] was 13.6 µM. Also, the result in data set [18] was Active. For the same compound, in [6], the IC50 came out at 0.2 µM. Also, the remaining at 0.5 h, 1 µM in [13] was determined as 102%; in [15], 93.8%.

The values above are taken from ChEMBL document CHEMBL5500399, “Design, Synthesis, and Biological Evaluation of 1,2,4-Oxadiazole Derivatives Containing an Aryl Carboxylic Acid Moiety as Potent Sarbecovirus Papain-like Protease Inhibitors” (J Med Chem, 2024).
